Laboratory results as given in US9681664B2, “Macrocyclic picolinamides as fungicides” (Dow Agrosciences LLC, priority 2012, dated 2017).

Legend:
Leptosphaeria nodorum = test: Wheat glume blotch (LEPTNO) disease control; type: in vivo; conditions: Parastagonospora nodorum, 24 h, High volume application, 1 Day Protectant, read-out: LEPTNO 1 DP disease control
Procedure: Technical grades of materials were dissolved in acetone, which were then mixed with nine volumes of water containing 110 ppm Triton X-100. The fungicide solutions were applied onto wheat seedlings using an automated booth sprayer to run-off. All sprayed plants were allowed to air dry prior to further handling. All fungicides were evaluated using the aforementioned method for their activity vs. all target diseases. Wheat leaf blotch and brown rust activity were also evaluated using track spray applications, in which case the fungicides were formulated as EC formulations, containing 0.1% Trycol 5941 in the spray solutions. Wheat plants (variety Yuma) were grown from seed in a greenhouse in 50% mineral soil/50% soil-less Metro mix until the first leaf was fully emerged, with 7-10 seedlings per pot. These plants were inoculated with an aqueous spore suspension of Leptosphaeria nodorum 24 hr after fungicide treatments. After inoculation the plants were kept in 100% relative humidity (one day in a dark dew chamber followed by two days in a lighted dew chamber at 20° C.) to permit spores to germinate and infect the leaf. The plants were then transferred to a greenhouse set at 20° C. for disease to develop. Fungicide formulation, application and disease assessment followed the procedures as described in the Example A.

Venturia inaequalis = test: Apple scab (VENTIN) disease control; type: in vivo; conditions: 24 h, High volume application, 1 Day Protectant, read-out: VENTIN 1 DP disease control
Procedure: Technical grades of materials were dissolved in acetone, which were then mixed with nine volumes of water containing 110 ppm Triton X-100. The fungicide solutions were applied onto wheat seedlings using an automated booth sprayer to run-off. All sprayed plants were allowed to air dry prior to further handling. All fungicides were evaluated using the aforementioned method for their activity vs. all target diseases. Wheat leaf blotch and brown rust activity were also evaluated using track spray applications, in which case the fungicides were formulated as EC formulations, containing 0.1% Trycol 5941 in the spray solutions. Apple seedlings (variety McIntosh) were grown in soil-less Metro mix, with one plant per pot. Seedlings with two expanding young leaves at the top (older leaves at bottom of the plants were trimmed) were used in the test. Plants were inoculated with a spore suspension of Venturia inaequalis 24 hr after fungicide treatment and kept in a 22° C. dew chamber with 100% RH for 48 hr, and then moved to a greenhouse set at 20° C. for disease to develop. Fungicide formulation, application and disease assessment on the sprayed leaves followed the procedures as described in the Example A.

## COc1ccnc(C(=O)N[C@H]2CCC[C@H](OCC(C)C)[C@@H](OCC(C)C)[C@H](C)OC2=O)c1OCOC(C)=O [F29]
Leptosphaeria nodorum
  pest or weed control at 100 ppm: 80 to 100%
Venturia inaequalis
  pest or weed control at 100 ppm: 80 to 100%

## CCCO[C@H]1CCC[C@H](NC(=O)c2nccc(OC)c2OC(C)=O)C(=O)O[C@@H](C)[C@@H]1Oc1ccccc1 [F141]
Leptosphaeria nodorum
  pest or weed control at 100 ppm: 80 to 100%
Venturia inaequalis
  pest or weed control at 100 ppm: 0 to 80%

## COc1ccnc(C(=O)N[C@H]2CCC[C@H](Oc3ccccc3)[C@@H](OC)[C@H](C)OC2=O)c1OCOC(=O)C(C)C [F255]
Leptosphaeria nodorum
  pest or weed control at 100 ppm: 80 to 100%
Venturia inaequalis
  pest or weed control at 100 ppm: 80 to 100%

## CCOCC(=O)OCOc1c(OC)ccnc1C(=O)N[C@H]1CCC[C@H](Oc2ccccc2)[C@@H](OC(=O)C2CCCC2)[C@H](C)OC1=O [F237]
Venturia inaequalis
  pest or weed control at 100 ppm: 80 to 100%

## COc1ccnc(C(=O)N[C@H]2CCC[C@H](OCC(C)C)[C@@H](Oc3ccccc3)[C@H](C)OC2=O)c1OCOC(C)=O [F26]
Leptosphaeria nodorum
  pest or weed control at 100 ppm: 80 to 100%

## COc1ccnc(C(=O)N[C@H]2CCC[C@H](Oc3ccccc3)[C@@H](OCC(C)C)[C@H](C)OC2=O)c1OCOC(C)=O [F28]
Leptosphaeria nodorum
  pest or weed control at 100 ppm: 0 to 80%
other
  melting point: 135 to 137 °C
Venturia inaequalis
  pest or weed control at 100 ppm: 80 to 100%

## COc1ccnc(C(=O)N[C@H]2CCC[C@H](Oc3ccccc3)[C@@H](OC)[C@H](C)OC2=O)c1OCOC(C)=O [F252]
Leptosphaeria nodorum
  pest or weed control at 100 ppm: 80 to 100%
Venturia inaequalis
  pest or weed control at 100 ppm: 0 to 80%

## COc1ccnc(C(=O)N[C@H]2CCC[C@H](OCC(C)C)[C@@H](OC)[C@H](C)OC2=O)c1OCOC(C)=O [F251]
Leptosphaeria nodorum
  pest or weed control at 100 ppm: 80 to 100%
Venturia inaequalis
  pest or weed control at 100 ppm: < 0%

## C=C(C)CO[C@H]1CCC[C@H](NC(=O)c2nccc(OC)c2OCOC(C)=O)C(=O)O[C@@H](C)[C@@H]1OC [F250]
Leptosphaeria nodorum
  pest or weed control at 100 ppm: 80 to 100%
Venturia inaequalis
  pest or weed control at 100 ppm: 80 to 100%

## COc1ccnc(C(=O)N[C@H]2CCC[C@H](Oc3ccccc3)[C@@H](OC(=O)C3CC3)[C@H](C)OC2=O)c1OC(C)=O [F242]
Venturia inaequalis
  pest or weed control at 100 ppm: 0 to 80%

## COc1ccnc(C(=O)N[C@H]2CCC[C@H](Oc3ccccc3)[C@@H](OC(=O)C3CC3)[C@H](C)OC2=O)c1OCOC(=O)C(C)C [F241]
Venturia inaequalis
  pest or weed control at 100 ppm: 0 to 80%

## C=C(C)CO[C@H]1CCC[C@H](NC(=O)c2nccc(OC)c2OCOC(=O)C(C)C)C(=O)O[C@@H](C)[C@@H]1OC [F253]
Leptosphaeria nodorum
  pest or weed control at 100 ppm: 80 to 100%
Venturia inaequalis
  pest or weed control at 100 ppm: 80 to 100%

## COc1ccnc(C(=O)N[C@H]2CCC[C@H](OCc3ccccc3)[C@@H](Oc3ccccc3)[C@H](C)OC2=O)c1OCOC(C)=O [F31]
Leptosphaeria nodorum
  pest or weed control at 100 ppm: 80 to 100%
other
  melting point: 49 to 55 °C

## COc1ccnc(C(=O)N[C@H]2CCC[C@H](OCC(C)C)[C@@H](OC)[C@H](C)OC2=O)c1OCOC(=O)C(C)C [F254]
Leptosphaeria nodorum
  pest or weed control at 100 ppm: 80 to 100%
Venturia inaequalis
  pest or weed control at 100 ppm: 80 to 100%

## COc1ccnc(C(=O)N[C@H]2CCC[C@H](OCC(C)C)[C@@H](OC3CCCC3)[C@H](C)OC2=O)c1OCOC(C)=O [F39]
Leptosphaeria nodorum
  pest or weed control at 100 ppm: 80 to 100%
Venturia inaequalis
  pest or weed control at 100 ppm: 80 to 100%

## COc1ccnc(C(=O)N[C@H]2CCC[C@H](OCc3ccccc3)[C@@H](OCc3ccccc3)[C@H](C)OC2=O)c1OCOC(C)=O [F30]
Leptosphaeria nodorum
  pest or weed control at 100 ppm: 80 to 100%
other
  melting point: 42 to 52 °C
Venturia inaequalis
  pest or weed control at 100 ppm: 80 to 100%

## COc1ccnc(C(=O)N[C@H]2CCC[C@H](Oc3ccccc3)[C@@H](Oc3ccccc3)[C@H](C)OC2=O)c1OCOC(C)=O [F20]
Leptosphaeria nodorum
  pest or weed control at 100 ppm: 80 to 100%
Venturia inaequalis
  pest or weed control at 100 ppm: 0 to 80%
